The source of these data is EP1163907A1, “Use of l-threo-methylphenidate for the treatment of depression” (Pharmaquest Limited, priority 2000, dated 2001).

Where two headings read alike, the source gives them in different places. Marks after values point to notes of the source that are not given here. A value given as a limit tells only on which side of the number the result lay.

One may read the MRT as a mean duration of stay, worked out from the concentration-time curve. As a reminder, the Vdss is a proportionality between amount in the body and measured concentration, not a real space.

Data set [1] can be described thus: Balanced, randomized 4-phase cross-over study, Profile of Mood State (POMS) rating scale after intravenous administration. The class given is in vivo, healthy male volunteers. To be noted: for composite "Dysphoria" ratings: POMS Anger-Hostility plus Depression plus Tension-Anxiety, compared with placebo, Figure 3; for rank order of ratings of the three components of "Dysphoria" (Tension, Depression and Anger): four treatments, same order for each component, Figure 4; for vigor ratings: POMS Vigor-Activity, compared with 1-MPH and placebo, Figure 2; for effect on "Energy": POMS composite score (Vigor-Activity minus Fatigue-Inertia), Figure 1. The method, then: A balanced, randomized 4-phase cross-over study was carried out in 12 healthy male volunteers who each received intravenous administrations of dl-MPH, d-threo-methylphenidate (d-MPH), 1-MPH and placebo. The Profile of Mood State (POMS) rating scale was used to estimate pharmacodynamic factors including Anger-Hostility, Confusion-Bewilderment, Depression-Dejection, Fatigue-Inertia, Tension-Anxiety, and Vigor-Activity. In addition composite scores were also produced for "Energy" ("Vigor-Activity" minus "Fatigue-Inertia") and 'Dysphoria" ("Anger-Hostility" plus […] plus "Tension-Anxiety").
This paradox apparently arose because d-MPH enhanced both components of "Energy" (Vigor-Activity and Fatigue-Inertia) over the test period.
The Fatigue-Inertia factor was not a simple rebound phenomenon.
There were very robust effects of drug condition on composite "Dysphoria" ratings. The d-MPH and to a lesser extent dl-MPH both increased "Dysphoria" compared with the placebo or 1-MPH.
Figure 4 depicts the response of the three components of "Dysphoria" (Tension, Depression and Anger) to the four treatments. […] Thus it appears that the overall pharmacodynamic effect of dl-MPH may represent an interaction between the "Dysphoric" effects of d-MPH and the mildly euphoric effects of 1-MPH. It is conceivable that the 1-MPH will emerge as euphoriant or antidepressant in subjects with higher baseline "Dysphoria" scores such as depressed patients in whom the dose of 1-MPH will have to be titrated.

The conditions of data set [2]: cited from earlier work.
For data set [3] the following is noted: mean ±SD in plasma; intravenous 10mg dl-MPH; 11 healthy male volunteers; cited from earlier work.
Data set [4] has as its target central dopamine transporters (Homo sapiens, UniProt Q01959). To be noted: after oral administration of dl-MPH in humans; cited from earlier work.
For data set [5] the following is noted: oral, cited from earlier work.

Chain of central dopamine transporters (Q01959 whole entry): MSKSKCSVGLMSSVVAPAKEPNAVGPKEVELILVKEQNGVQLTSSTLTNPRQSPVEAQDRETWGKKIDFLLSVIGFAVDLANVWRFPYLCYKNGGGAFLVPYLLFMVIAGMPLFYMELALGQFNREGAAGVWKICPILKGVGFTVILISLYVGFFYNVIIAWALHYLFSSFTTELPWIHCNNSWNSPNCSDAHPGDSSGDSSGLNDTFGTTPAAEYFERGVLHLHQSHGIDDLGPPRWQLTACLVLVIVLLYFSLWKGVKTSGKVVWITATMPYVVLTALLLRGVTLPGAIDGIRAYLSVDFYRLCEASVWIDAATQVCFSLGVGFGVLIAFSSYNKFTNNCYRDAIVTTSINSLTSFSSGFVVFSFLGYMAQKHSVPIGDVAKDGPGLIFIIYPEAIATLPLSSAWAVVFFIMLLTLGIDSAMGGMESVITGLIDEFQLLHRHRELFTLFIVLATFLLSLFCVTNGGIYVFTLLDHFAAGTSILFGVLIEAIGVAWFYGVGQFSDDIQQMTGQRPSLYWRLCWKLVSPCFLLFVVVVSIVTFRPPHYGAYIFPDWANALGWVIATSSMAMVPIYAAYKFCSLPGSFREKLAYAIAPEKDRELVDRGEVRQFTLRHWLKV

Take `COC(=O)[C@@H](c1ccccc1)[C@@H]1CCCCN1` [1-MPH, 2S,2'S-methyl 2-phenyl-2-(2'-piperidyl)acetate]: in data set [1], the “composite "Dysphoria" ratings” value is on record as “numerically lower”; the “rank order of ratings of the three components of "Dysphoria" (Tension, Depression and Anger)” value (“rank order” for short) is 1-MPH < placebo < dl-MPH < d-MPH. The “concentrations in plasma and brain” value in data set [2] (after oral administration of dl-MPH, extensive enantioselective first pass metabolism) is recorded as “very low”. For the same compound, in data set [3], the CL is 0.73±0.028^h L/kg.h^-1, the CLR is recorded as 0.005±0.003^c l/kg.h^-1, the mean residence time MRT is reported as 2.44±0.51^b h and the Vdss is on record as 1.80±0.91^b L/kg.
For the compound `COC(=O)[C@H](c1ccccc1)[C@H]1CCCCN1` [d-MPH, d-threo-methylphenidate], the “blocking central dopamine transporters” value in data set [4] is on record as “very effective”. Also, in data set [1], the “composite "Dysphoria" ratings” value was “increased”; the vigor ratings result is on record as “significantly different”; the “effect on "Energy"” value was “not strongly energizing”; the “rank order” value is 1-MPH < placebo < dl-MPH < d-MPH. Besides, the “absolute bioavailability (F)” value in data set [2] (after oral administration of the racemic drug) is 0.25. In data set [3], the CLR is given as 0.005±0.003 l/kg.h^-1, the MRT is 6.53 ± 1.62 h and the distribution volume (Vdss) is 2.65 ± 1.11 L/kg.
Take `COC(=O)[C@H](c1ccccc1)[C@H]1CCCCN1` (racemic) [dl-MPH, dl-threo-methylphenidate]: in data set [1], the “composite "Dysphoria" ratings” value is “increased”; the vigor ratings result is “significantly different”; the “effect on "Energy"” value was “enhanced”; the “rank order” value is recorded as 1-MPH < placebo < dl-MPH < d-MPH. For the same compound, the “Hamilton depression scale decreased” value in data set [5] (3 subjects, decreased minimally) was less than 30%. For the same compound, in data set [5] (7 subjects, depressive symptoms decreased markedly), the “Hamilton depression scale decreased” value was greater than 55%. The “benefit in depressed patients” value in data set [5] (n = 16) is “statistically and clinically significant”.
